Source: US11453660B2, “Androgen receptor and glucocorticoid receptor modulators” (ONCOSTELLAE, S.L., priority 2017, dated 2022)

Legend:
[1] = target: T1, Human Glucocorticoid Receptor (Homo sapiens, UniProt P04150); test: Competition Binding in IM-9 Human Glucocorticoid Receptor (GR IM-9); conditions: cytosol from IM-9 cell line, 1.5 nM [3H]-Dexamethasone, 4° C. for 6 hours
T1 construct: endogenous in cells; host or cells: cytosol from IM-9 cell line
T1 sequence (P04150 1-777): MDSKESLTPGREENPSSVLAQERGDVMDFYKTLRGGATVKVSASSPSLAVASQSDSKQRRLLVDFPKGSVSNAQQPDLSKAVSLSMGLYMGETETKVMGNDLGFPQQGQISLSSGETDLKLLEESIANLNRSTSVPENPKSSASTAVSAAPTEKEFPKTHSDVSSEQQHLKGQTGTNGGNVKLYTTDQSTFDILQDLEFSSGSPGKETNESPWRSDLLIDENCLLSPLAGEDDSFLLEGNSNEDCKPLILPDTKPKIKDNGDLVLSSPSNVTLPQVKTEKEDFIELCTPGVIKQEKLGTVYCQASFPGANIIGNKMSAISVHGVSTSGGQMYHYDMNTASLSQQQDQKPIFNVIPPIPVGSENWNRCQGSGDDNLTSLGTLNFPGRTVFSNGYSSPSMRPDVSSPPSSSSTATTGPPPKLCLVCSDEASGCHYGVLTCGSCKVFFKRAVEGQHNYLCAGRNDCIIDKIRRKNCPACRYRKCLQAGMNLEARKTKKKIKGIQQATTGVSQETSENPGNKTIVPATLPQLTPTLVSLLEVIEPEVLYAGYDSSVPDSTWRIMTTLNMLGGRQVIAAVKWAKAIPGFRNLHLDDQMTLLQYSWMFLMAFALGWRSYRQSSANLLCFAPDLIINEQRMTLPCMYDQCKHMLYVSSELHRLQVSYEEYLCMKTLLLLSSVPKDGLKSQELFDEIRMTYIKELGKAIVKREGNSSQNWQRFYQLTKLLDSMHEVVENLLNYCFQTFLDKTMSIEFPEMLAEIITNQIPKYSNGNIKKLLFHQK
Outline: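 Radioligand competition using 100 μg IM-9 cell cytosol and 1.5 nM [3H]-dexamethasone, incubated 6 h at 4° C in TES/molybdate buffer, pH 7.4. Filtration on PEI-treated GF/B filters, scintillation counting; nonspecific binding defined with 10 μM triamcinolone.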

AR-Receptor = target: T2, AR-Receptor (Homo sapiens, UniProt P10275); test: Functional Assay AR-Receptor (MDA-MB-453 cells, luciferase); assay type: cell-based; conditions: antagonist effect in the presence of DHT 1 nM, 24 h, luciferase luminescence, read-out: AR antag KB
T2 sequence (P10275 1-920 Q868H): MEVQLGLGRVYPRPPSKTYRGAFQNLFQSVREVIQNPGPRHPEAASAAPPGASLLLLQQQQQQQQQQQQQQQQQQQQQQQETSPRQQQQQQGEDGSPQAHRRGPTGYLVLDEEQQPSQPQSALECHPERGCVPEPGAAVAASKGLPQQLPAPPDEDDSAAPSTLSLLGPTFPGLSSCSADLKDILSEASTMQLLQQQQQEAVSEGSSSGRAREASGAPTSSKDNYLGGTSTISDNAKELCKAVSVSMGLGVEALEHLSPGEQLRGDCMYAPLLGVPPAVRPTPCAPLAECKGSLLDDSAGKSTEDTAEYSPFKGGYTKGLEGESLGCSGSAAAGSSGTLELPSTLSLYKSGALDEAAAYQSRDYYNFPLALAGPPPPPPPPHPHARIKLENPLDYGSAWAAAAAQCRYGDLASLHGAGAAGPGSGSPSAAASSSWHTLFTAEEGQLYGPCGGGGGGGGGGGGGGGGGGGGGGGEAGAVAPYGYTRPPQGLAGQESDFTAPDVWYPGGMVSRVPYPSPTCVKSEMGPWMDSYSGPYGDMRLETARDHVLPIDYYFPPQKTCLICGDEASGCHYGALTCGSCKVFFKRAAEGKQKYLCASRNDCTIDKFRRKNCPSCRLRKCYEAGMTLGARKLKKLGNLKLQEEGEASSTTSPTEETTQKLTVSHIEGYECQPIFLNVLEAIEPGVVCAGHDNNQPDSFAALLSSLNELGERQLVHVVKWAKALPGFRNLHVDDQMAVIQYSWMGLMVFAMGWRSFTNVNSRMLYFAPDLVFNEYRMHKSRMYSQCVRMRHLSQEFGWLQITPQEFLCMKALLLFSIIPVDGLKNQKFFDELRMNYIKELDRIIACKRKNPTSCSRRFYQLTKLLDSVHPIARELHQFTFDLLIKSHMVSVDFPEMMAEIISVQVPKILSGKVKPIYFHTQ
Procedure: Functional Assay AR-Receptor
MDA-MB-453 cells were cultured in DMEM (ATCC, ref 30-2002), 10% FBS, 1% penicillin, 1% streptomycin, 75 μg/ml gentamycin.
The day before performing assay, the cells were trypsinized and seeded in a 384-well plate (Greiner, ref 781098) (8000 cells/well) in 50 μl of complete culture medium. Cells were stores at 37° C. in a 5% CO2 atmosphere overnight.
The medium was replaced by 50 μl complete growth medium with 0.1% FBS. Compounds were dispensed with Echo 550 (Labcyte) and incubated for 24 h at 37° C. in a 5% CO2 atmosphere. Antagonist effect was measured in the presence of DHT 1 nM.
After incubation, assay medium removed and 20 μl of 1× Promega lysis buffer were added to each well. The plate was incubated 15 minutes at RT and quick-frozen to −80° C. and the thaw to room temperature. 50 μl of luciferase substrate (E4550, Promega) were added to each well and luminescence (integration time 1000 msec) was read in an EnSpire multilabel reader (Perkin Elmer).

Compound | IC50 [1] | Kb (AR-Receptor)
CC(=O)C1=C(C)NC(C)=C(C(=O)OCc2cccnc2)C1c1csc2ncccc12 (stereo not drawn) [Example C61, Pyridin-3-ylmethyl 5-acetyl-2,6-dimethyl-4-(thieno[2,3-b]pyridin-3-yl)-1,4-dihydropyridine-3-carboxylate] | ≥ 1000 nM | 100 to 1000 nM
CC(=O)C1=C(C)NC(C)=C(C(=O)OCc2ccncc2)C1c1csc2ncccc12 (stereo not drawn) [Example C64, Pyridin-4-ylmethyl 5-acetyl-2,6-dimethyl-4-(thieno[2,3-b]pyridin-3-yl)-1,4dihydropyridine-3-carboxylate] | ≥ 1000 nM | 100 to 1000 nM
CC(=O)C1=C(C)NC(C)=C(C(=O)OCc2ccc(Cl)nc2)C1c1csc2ncccc12 (stereo not drawn) [Example C74, (6-chloropyridin-3-yl)methyl 5-acetyl-2,6-dimethyl-4-(thieno[2,3-b]pyridin-3-yl)-1,4-dihydropyridine-3-carboxylate] | 100 to 1000 nM | ≥ 1000 nM
CC(=O)C1=C(C)NC(C)=C(C(=O)OCc2cccc(N3CCOCC3)c2)C1c1csc2ncccc12 (stereo not drawn) [Example C75, 3-morpholinobenzyl 5-acetyl-2,6-dimethyl-4-(thieno[2,3-b]pyridin-3-yl)-1,4-dihydropyridine-3-carboxylate] | 100 to 1000 nM | ≥ 1000 nM
CC(=O)C1=C(C)NC(C)=C(C(=O)OC2CCC(F)(F)CC2)C1c1csc2ncccc12 (stereo not drawn) [Example C79, 4,4-difluorocyclohexyl 5-acetyl-2,6-dimethyl-4-(thieno[2,3-b]pyridin-3-yl)-1,4-dihydropyridine-3-carboxylate] | < 100 nM | ≥ 1000 nM
CC(=O)C1=C(C)NC(C)=C(C(=O)N(C)Cc2ccccc2)C1c1csc2ncccc12 (stereo not drawn) [Example C80, 5-Acetyl-N-benzyl-N,2,6-trimethyl-4-(thieno[2,3-b]pyridin-3-yl)-1,4-dihydropyridine-3-carboxamide] | ≥ 1000 nM | ≥ 1000 nM
COC(=O)C1=C(C2CC2)NC(C2CC2)=C(C#N)C1c1csc2c(C#N)cccc12 (stereo not drawn) [Example C107, Methyl 5-cyano-4-(7-cyanobenzo[b]thiophen-3-yl)-2,6-dicyclopropyl-1,4-dihydropyridine-3-carboxylate] | < 100 nM | ≥ 1000 nM
CC(=O)C1=C(C)NC(C)=C(C(=O)OCc2cccc(CN3CCN(C)CC3)c2)C1c1csc2c(Br)cccc12 (stereo not drawn) [Example C108, 3-((4-methylpiperazin-1-yl)methyl)benzyl 5-acetyl-4-(7-bromobenzo[b]thiophen-3-yl)-2,6-dimethyl-1,4-dihydropyridine-3-carboxylate] | < 100 nM | ≥ 1000 nM
CC(=O)C1=C(C)NC(C2CC2)=C(C(=O)OCC2CC2)C1c1csc2cc(C#N)ccc12 (stereo not drawn) [Example C122, Cyclopropylmethyl 5-acetyl-4-(6-cyanobenzo[b]thiophen-3-yl)-2-cyclopropyl-6-methyl-1,4-dihydropyridine-3-carboxylate] | 100 to 1000 nM | < 100 nM
CC(=O)C1=C(C)NC(N)=C(C(=O)OC2CCCC2)C1c1csc2c(Br)cccc12 (stereo not drawn) [Example D6, Cyclopentyl 5-acetyl-2-amino-4-(7-bromobenzo[b]thiophen-3-yl)-6-methyl-1,4-dihydropyridine-3-carboxylate] | 100 to 1000 nM | ≥ 1000 nM
COC(=O)C1=C(C)NC(N)=C(C(=O)OC)C1c1csc2c(C#N)cccc12 (stereo not drawn) [Example D7, Dimethyl 2-amino-4-(7-cyanobenzo[b]thiophen-3-yl)-6-methyl-1,4-dihydropyridine-3,5-dicarboxylate] | < 100 nM | ≥ 1000 nM
CC(=O)C1=C(C)NC(C2CC2)=C(C(=O)OCc2ccc(C#N)cc2)C1c1csc2ncccc12 (stereo not drawn) [Example J43, 4-cyanobenzyl 5-acetyl-2-cyclopropyl-6-methyl-4-(thieno[2,3-b]pyridin-3-yl)-1,4-dihydropyridine-3-carboxylate] | < 100 nM | 100 to 1000 nM
CC(=O)C1=C(C)NC(C)=C(C(=O)OCc2ccccc2-c2ccncc2)C1c1csc2ncccc12 (stereo not drawn) [Example L5, 2-(pyridin-4-yl)benzyl 5-acetyl-2,6-dimethyl-4-(thieno[2,3-b]pyridin-3-yl)-1,4-dihydropyridine-3-carboxylate] | < 100 nM | ≥ 1000 nM
CC(=O)C1=C(C)NC(C)=C(C(=O)OCc2cncc(-c3ccncc3)c2)C1c1csc2ncccc12 (stereo not drawn) [Example L7, [3,4′-bipyridin]-5-ylmethyl 5-acetyl-2,6-dimethyl-4-(thieno[2,3-b]pyridin-3-yl)-1,4-dihydropyridine-3-carboxylate] | 100 to 1000 nM | ≥ 1000 nM
CC(=O)C1=C(C)NC(C)=C(C(=O)OCc2ccc(-c3ccncc3)nc2)C1c1csc2ncccc12 (stereo not drawn) [Example L9, [2,4′-bipyridin]-5-ylmethyl 5-acetyl-2,6-dimethyl-4-(thieno[2,3-b]pyridin-3-yl)-1,4-dihydropyridine-3-carboxylate] | – | 100 to 1000 nM
Benzyl 5-acetyl-4-(7-(methoxycarbonyl)benzo[b]thiophen-3-yl)-2,6-dimethyl-1,4-dihydropyridine-3-carboxylate [Example J38] | – | 100 to 1000 nM
